Measured values reported in patent publication US9078909B2, “Tertiary amines, medicaments containing said amines, use thereof and processes for the preparation thereof” (Boehringer Ingelheim International GmbH, priority 2012, dated 2015).
Like-named read-outs stand apart in the source and are kept apart here.

Molecular target: T1, epithelial sodium channel (ENaC) (Mus musculus, UniProt Q61180+Q9WU38+Q9WU39)
T1 construct: Mouse kidney M-1 cells were cultivated in DMEM; endogenous in cells; host or cells: mouse kidney M-1 cells (cortical collecting duct line), dexamethasone-treated, on transwell filters
T1 sequence (Q61180 1-699): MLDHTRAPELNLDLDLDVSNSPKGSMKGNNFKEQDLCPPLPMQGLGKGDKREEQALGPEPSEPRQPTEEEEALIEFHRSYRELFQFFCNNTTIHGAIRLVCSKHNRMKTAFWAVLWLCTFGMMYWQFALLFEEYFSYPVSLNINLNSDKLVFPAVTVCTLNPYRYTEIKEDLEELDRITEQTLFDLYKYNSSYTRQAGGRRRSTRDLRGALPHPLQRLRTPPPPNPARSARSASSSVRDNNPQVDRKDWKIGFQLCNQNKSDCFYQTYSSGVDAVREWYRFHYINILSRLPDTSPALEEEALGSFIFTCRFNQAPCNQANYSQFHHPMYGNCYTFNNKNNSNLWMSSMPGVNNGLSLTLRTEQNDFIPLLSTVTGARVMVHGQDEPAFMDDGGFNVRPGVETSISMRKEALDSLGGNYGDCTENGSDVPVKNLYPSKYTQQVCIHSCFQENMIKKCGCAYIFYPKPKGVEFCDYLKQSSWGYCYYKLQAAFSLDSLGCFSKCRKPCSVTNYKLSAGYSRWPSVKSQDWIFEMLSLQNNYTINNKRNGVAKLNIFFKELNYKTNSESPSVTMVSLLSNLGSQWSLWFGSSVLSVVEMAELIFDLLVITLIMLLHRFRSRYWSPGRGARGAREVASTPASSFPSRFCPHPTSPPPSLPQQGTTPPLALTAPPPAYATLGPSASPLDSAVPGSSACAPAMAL
T1 sequence (Q9WU38 1-638): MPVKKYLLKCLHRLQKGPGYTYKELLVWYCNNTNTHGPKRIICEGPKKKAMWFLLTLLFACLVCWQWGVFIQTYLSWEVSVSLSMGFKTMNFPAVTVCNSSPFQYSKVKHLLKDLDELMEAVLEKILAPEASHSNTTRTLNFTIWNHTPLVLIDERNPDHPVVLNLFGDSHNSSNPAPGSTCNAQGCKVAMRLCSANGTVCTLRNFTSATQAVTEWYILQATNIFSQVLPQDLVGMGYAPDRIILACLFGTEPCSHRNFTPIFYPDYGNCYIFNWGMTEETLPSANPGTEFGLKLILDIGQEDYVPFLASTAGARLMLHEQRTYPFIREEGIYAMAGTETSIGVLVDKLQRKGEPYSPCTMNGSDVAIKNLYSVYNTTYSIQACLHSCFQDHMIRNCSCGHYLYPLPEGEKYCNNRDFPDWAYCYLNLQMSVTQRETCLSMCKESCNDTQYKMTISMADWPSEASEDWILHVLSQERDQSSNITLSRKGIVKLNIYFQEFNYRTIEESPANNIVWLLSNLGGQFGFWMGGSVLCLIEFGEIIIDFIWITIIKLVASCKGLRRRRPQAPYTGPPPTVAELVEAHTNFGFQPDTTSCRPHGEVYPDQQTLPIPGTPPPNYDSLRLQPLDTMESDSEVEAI
T1 sequence (Q9WU39 1-655): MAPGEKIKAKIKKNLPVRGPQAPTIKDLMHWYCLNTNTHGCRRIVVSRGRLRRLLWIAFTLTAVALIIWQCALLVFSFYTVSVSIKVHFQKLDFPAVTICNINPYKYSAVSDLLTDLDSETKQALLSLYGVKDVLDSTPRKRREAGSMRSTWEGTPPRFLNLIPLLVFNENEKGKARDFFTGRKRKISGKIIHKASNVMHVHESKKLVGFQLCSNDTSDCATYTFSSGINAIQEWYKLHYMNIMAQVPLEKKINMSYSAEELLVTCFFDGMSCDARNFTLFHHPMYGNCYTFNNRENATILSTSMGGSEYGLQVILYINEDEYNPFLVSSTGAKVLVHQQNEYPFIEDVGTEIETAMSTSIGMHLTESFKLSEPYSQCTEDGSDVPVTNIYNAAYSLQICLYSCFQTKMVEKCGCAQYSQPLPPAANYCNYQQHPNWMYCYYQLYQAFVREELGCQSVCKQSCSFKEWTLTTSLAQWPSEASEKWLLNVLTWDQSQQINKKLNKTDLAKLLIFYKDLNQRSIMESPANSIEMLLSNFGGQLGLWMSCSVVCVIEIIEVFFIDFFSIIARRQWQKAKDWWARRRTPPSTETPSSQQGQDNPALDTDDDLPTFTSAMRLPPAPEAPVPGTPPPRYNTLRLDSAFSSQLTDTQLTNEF
Assay: Ussing Chamber assay: inhibition of amiloride sensitive short circuit current (I_sc) in M-1 cells
Assay type: cell-based
Description: Ussing Chamber: Mouse kidney M-1 cells were cultivated in DMEM containing 5% FCS and 5 μM dexamethasone for 10 to 12 days on polyester transwell filters. Filters were inserted into a teflon-coated well-plate which fit into the in-house ussing chamber system. Prior to measurement the medium of M-1 cells was replaced with Caco-2 transport buffer (Invitrogen, Germany). During measurements, the Ussing chamber temperature was kept at 37° C. Short circuit currents (I_sc) were measured in the voltage-clamp mode using an in-house built amplifier (Boehringer Ingelheim, Biberach) with the software package Lab View for data acquisition and analysis. The transepithelial electrical resistance (TEER) was determined by the application of voltage steps of ±5 mV every 5 sec. Compounds were administered at a final concentration of 3 μM or at increasing concentrations (e.g. 1-3-10 μM) to the apical solution. At the end of each experiment the amiloride sensitive I_SC was measured by adding 3 μM amiloride to the apical compartment. Results are expressed as inhibition in percent of the amiloride effect or as IC50.
With the example compounds given above, the following IC50 values were determined in the Ussing Chamber assay: […]

[1] = Ussing Chamber, mouse kidney M-1 cells on transwell filters, short circuit current, compound added to apical solution, 37° C., read-out: IC50

SMILES | IC50 [1] | IC50
NC(=NC(=O)c1nc(Cl)c(N)nc1N)NC1CCN(CC(=O)Nc2ccccc2C(=O)O)CC1 [Example 2.3] | 47 nM | –
CCSCCNC(=O)CN1CCC(NC(N)=NC(=O)c2nc(Cl)c(N)nc2N)CC1 [Example 1.30] | 2 nM | –
NC(=NC(=O)c1nc(Cl)c(N)nc1N)NC1CCN(C(C(=O)NCc2ccccc2)C(=O)NCc2ccccc2)CC1 [Example 4.20] | 10 nM | –
NC(=NC(=O)c1nc(Cl)c(N)nc1N)NC1CCN(CC(=O)Nc2ccc(S(N)(=O)=O)cc2)CC1 [Example 1.4] | 2 nM | –
COC(=O)c1cccc(NC(=O)CN2CCC(NC(N)=NC(=O)c3nc(Cl)c(N)nc3N)CC2)c1 [Example 1.19] | 3 nM | –
NC(=NC(=O)c1nc(Cl)c(N)nc1N)NC1CCN(CC(=O)NC2CCSCC2)CC1 [Example 1.31] | 2 nM | –
CN(C)CCN(C)S(=O)(=O)c1ccc(NC(=O)CN2CCC(NC(N)=NC(=O)c3nc(Cl)c(N)nc3N)CC2)cc1 [Example 1.11] | 1 nM | –
NC(=NC(=O)c1nc(Cl)c(N)nc1N)NC1CCN(CC(=O)Nc2cccc(C(=O)O)c2)CC1 [Example 2.2] | 31 nM | –
NC(=O)c1cccc(CNC(=O)CN2CCC(NC(N)=NC(=O)c3nc(Cl)c(N)nc3N)CC2)c1 [Example 6.9] | 8 nM | –
N=C(NC(=O)c1nc(Cl)c(N)nc1N)NC1CCN(CC(=O)O)CC1 [Example 5.1] | 266 nM | –
CN(Cc1ccccc1)C(=O)CN1CCC(NC(N)=NC(=O)c2nc(Cl)c(N)nc2N)CC1 [Example 1.21] | 18 nM | –
COC(=O)Cn1ccc(NC(=O)CN2CCC(NC(N)=NC(=O)c3nc(Cl)c(N)nc3N)CC2)cc1=O [Example 1.16] | 18 nM | –
CCOC(=O)CNC(=O)CN1CCC(NC(N)=NC(=O)c2nc(Cl)c(N)nc2N)CC1 [Example 4.4] | 11 nM | –
NC(=NC(=O)c1nc(Cl)c(N)nc1N)NC1CCN(CC(=O)NCCCn2ccnc2)CC1 [Example 1.24] | 7 nM | –
NC(=NC(=O)c1nc(Cl)c(N)nc1N)NC1CCN(CC(=O)NCc2ccc(S(N)(=O)=O)cc2)CC1 [Example 1.26] | 3 nM | –
NC(=NC(=O)c1nc(Cl)c(N)nc1N)NC1CCN(CC(=O)NCC(=O)O)CC1 [Example 5.2] | 80 nM | –
NC(=NC(=O)c1nc(Cl)c(N)nc1N)NC1CCN(CCN2CCOCC2)CC1 [Example 4.7] | 30 nM | –
NC(=NC(=O)c1nc(Cl)c(N)nc1N)NC1CCN(CC(=O)NC2CN3CCC2CC3)CC1 (stereo not drawn) [Example 1.32] | 13 nM | –
COc1ccc(CNC(=O)CN2CCC(N/C(N)=N/C(=O)c3nc(Cl)c(N)nc3N)CC2)cc1 [Example 6.1] | 5 nM | –
COC(=O)CCN1CCC(NC(=N)NC(=O)c2nc(Cl)c(N)nc2N)CC1 [Example 4.1] | 19 nM | –
CN(C)CC(=O)N(C)c1ccc(NC(=O)CN2CCC(NC(N)=NC(=O)c3nc(Cl)c(N)nc3N)CC2)cc1 [Example 1.7] | 1 nM | –
CCOP(=O)(CN1CCC(NC(N)=NC(=O)c2nc(Cl)c(N)nc2N)CC1)OCC [Example 4.16] | – | 19 nM
N=C(NC(=O)c1nc(Cl)c(N)nc1N)NC1CCN(CC(=O)Nc2ccccc2)CC1 [Example 1.1] | 2 nM | –
NC(=O)c1ccc(CNC(=O)CN2CCC(NC(N)=NC(=O)c3nc(Cl)c(N)nc3N)CC2)cc1 [Example 6.8] | 5 nM | –
CCNC(=O)CN1CCC(NC(N)=NC(=O)c2nc(Cl)c(N)nc2N)CC1 [Example 1.33] | 5 nM | –
N#CCN1CCC(NC(=N)NC(=O)c2nc(Cl)c(N)nc2N)CC1 [Example 7.1] | 35 nM | –
CCCCNC(=O)CN1CCC(NC(N)=NC(=O)c2nc(Cl)c(N)nc2N)CC1 [Example 6.6] | 1 nM | –
CCOC(=O)CN1CCC(NC(N)=NC(=O)c2nc(Cl)c(N)nc2N)CC1 [Example 4.6] | 7 nM | –

The next lines start with results.

IC50 [1] | SMILES | IC50
3 nM | CC(C)(C)OC(=O)CN1CCC(NC(N)=NC(=O)c2nc(Cl)c(N)nc2N)CC1 [Example 4.18] | –
27 nM | COC(=O)CCCN1CCC(NC(N)=NC(=O)c2nc(Cl)c(N)nc2N)CC1 [Example 4.8] | –
4 nM | CCCCOC(=O)CN1CCC(NC(N)=NC(=O)c2nc(Cl)c(N)nc2N)CC1 [Example 4.10] | –
3 nM | NC(=NC(=O)c1nc(Cl)c(N)nc1N)NC1CCN(CC(=O)NCc2nccs2)CC1 [Example 6.11] | –
27 nM | COCCN(CCOC)C(=O)CN1CCC(NC(N)=NC(=O)c2nc(Cl)c(N)nc2N)CC1 [Example 6.2] | –
9 nM | CCOC(=O)C(C(=O)OCC)N1CCC(NC(N)=NC(=O)c2nc(Cl)c(N)nc2N)CC1 [Example 4.19] | –
0.3 nM | COC(=O)c1ccccc1NC(=O)CN1CCC(NC(N)=NC(=O)c2nc(Cl)c(N)nc2N)CC1 [Example 1.18] | –
176 nM | NC(=NC(=O)c1nc(Cl)c(N)nc1N)NC1CCN(CC(=O)N2CCC(C(=O)O)CC2)CC1 [Example 5.4] | –
3 nM | CN1CCN(c2cccc(CNC(=O)CN3CCC(NC(N)=NC(=O)c4nc(Cl)c(N)nc4N)CC3)c2)CC1 [Example 6.10] | –
53 nM | CCN1CCC(NC(N)=NC(=O)c2nc(Cl)c(N)nc2N)CC1 [Example 4.14] | –
1 nM | CC(=O)N(CCCN(C)C)c1ccc(NC(=O)CN2CCC(NC(N)=NC(=O)c3nc(Cl)c(N)nc3N)CC2)cc1 [Example 1.10] | –
3 nM | NC(=NC(=O)c1nc(Cl)c(N)nc1N)NC1CCN(CC(=O)NCc2ccccc2)CC1 [Example 1.23] | –
17 nM | CC(C)(C)OC(=O)C1CCN(C(=O)CN2CCC(NC(N)=NC(=O)c3nc(Cl)c(N)nc3N)CC2)CC1 [Example 4.24] | –
6 nM | CN1CCC(N(C)C(=O)c2ccc(NC(=O)CN3CCC(NC(N)=NC(=O)c4nc(Cl)c(N)nc4N)CC3)cc2)CC1 [Example 1.5] | –
7 nM | NC(=NC(=O)c1nc(Cl)c(N)nc1N)NC1CCN(CC(=O)Nc2cccnc2)CC1 [Example 1.17] | –
1 nM | NC(=NC(=O)c1nc(Cl)c(N)nc1N)NC1CCN(CC(=O)Nc2ccc(CN3CCCCC3)cc2)CC1 [Example 1.8] | –
8 nM | NC(=NC(=O)c1nc(Cl)c(N)nc1N)NC1CCN(CC(=O)NC2CCOCC2)CC1 [Example 1.29] | –
3 nM | CC(C)NC(=O)CN1CCC(NC(N)=NC(=O)c2nc(Cl)c(N)nc2N)CC1 [Example 6.7] | –
10 nM | CCS(=O)(=O)CCN1CCC(NC(N)=NC(=O)c2nc(Cl)c(N)nc2N)CC1 [Example 4.3] | –
12 nM | NC(=NC(=O)c1nc(Cl)c(N)nc1N)NC1CCN(CC(=O)N2CCSCC2)CC1 [Example 4.15] | –
